Measured values reported in US9713616B2, “Pharmaceutical compositions comprising L-leucovorin” (Spectrum Pharmaceuticals, Inc., priority 2012, dated 2017).

Tests used:
Type in all cases: physicochemical
[1] = Example 1: dissolved concentration after about one hour of sonication, then stirring at 5° C.; details: sonicated about one hour, stirred at 5° C.
Method: L-leucovorin calcium (Merck) or racemic leucovorin calcium (Sigma) was added to water or aqueous sodium chloride (0.83%) and sonicated for about one hour. The mixtures were then stirred for about 20 hours at 5° C. The concentration of dissolved L-leucovorin calcium or racemic leucovorin calcium was determined at 15 min., 30 min., 1 hour, and 20 hours after sonication began.

[2] = Example 4: dissolved concentration after 1 hour of sonication, then stirring at 25° C.; details: sonicated 1 hour, stirred at 25° C.
Method: L-leucovorin calcium (Merck) or racemic leucovorin calcium (Sigma) was added to water or aqueous sodium chloride (0.83%) and sonicated for 1 hour. The mixture was then stirred for an additional 19 hours 25° C. The concentration of dissolved L-leucovorin calcium or racemic leucovorin calcium was determined at 15 min., 30 min., 1 hour, or 20 hours after stirring began.

[3] = Example 6: dissolved concentration after sonication at 40° C. for one hour, stirring at 25° C., nitrogen purge and sealed vial after 2 hours; details: sonicated at 40° C. one hour, stirred at 25° C.
Method: (§1) L-leucovorin calcium (Merck) or racemic leucovorin (USP) calcium was added to water or aqueous sodium chloride (0.83%) and sonicated at 40° C. for one hour to dissolve the L-leucovorin calcium or racemic leucovorin calcium. The solutions were then stirred at 25° C. for an additional hour. After 2 hours, the solutions were purged with nitrogen and placed in a sealed vial. The mixtures were then stirred for an additional 18 hours. The concentration of dissolved L-leucovorin calcium or racemic leucovorin calcium was determined at two hours and 20 hours after sonication began.

[4] = Example 5: dissolved concentration after sonication at 40° C. for about half an hour, then stirring at 25° C. for 20 hours; details: sonicated at 40° C. about half an hour, stirred at 25° C.
Method: L-leucovorin calcium (Merck) or racemic leucovorin calcium (USP) was added to water or aqueous sodium chloride (0.83%) and sonicated at 40° C. for about half an hour. The mixture was then stirred at 25° C. for 20 hours. The concentration of dissolved L-leucovorin calcium or racemic leucovorin calcium was determined at two hours and 20 hours.

[5] = Example 2: dissolved concentration after sonication at 40° C., then stirring at 5° C. for 20 hours; details: sonicated at 40° C., stirred at 5° C.
Method: L-leucovorin calcium (Merck) or racemic leucovorin calcium (USP) was added to water or aqueous sodium chloride (0.83%) and sonicated at 40° C. to dissolve the L-leucovorin calcium or racemic leucovorin calcium. The solutions were then stirred at 5° C. for 20 hours. The concentration of dissolved L-leucovorin calcium or racemic leucovorin calcium was determined at 2 hours and 20 hours after stirring began.

[6] = Example 3: dissolved concentration after sonication at 40° C., stirring at 5° C., nitrogen purge and sealed vial at 2 hours; details: sonicated at 40° C., stirred at 5° C.
Method: as §1, with “C.” for “C. for one hour”, “5°” for “25°”, “15 hours. At” for “an additional hour. After”, “nitrogen gas” for “nitrogen”, “vial.” for “vial. The mixtures were then stirred for an additional 18 hours.”, “15” for “20”

Row | Structure (SMILES) | Assay (concentration of dissolved compound) ([1]; H2O, 15 min.) [mg/mL] | Assay (concentration of dissolved compound) ([1]; H2O, 30 min.) [mg/mL] | Assay (concentration of dissolved compound) ([1]; H2O, 1 hr) [mg/mL] | Assay (concentration of dissolved compound) ([1]; H2O, 20 hrs) [mg/mL] | Assay (concentration of dissolved compound) ([1]; NaCl (0.83%), 15 min.) [mg/mL] | Assay (concentration of dissolved compound) ([1]; NaCl (0.83%), 30 min.) [mg/mL] | Assay (concentration of dissolved compound) ([1]; NaCl (0.83%), 1 hr) [mg/mL] | Assay (concentration of dissolved compound) ([1]; NaCl (0.83%), 20 hrs) [mg/mL] | Assay (concentration of dissolved compound) ([2]; H2O, 15 min.) [mg/mL] | Assay (concentration of dissolved compound) ([2]; H2O, 30 min.) [mg/mL] | Assay (concentration of dissolved compound) ([2]; H2O, 1 hr) [mg/mL] | Assay (concentration of dissolved compound) ([2]; H2O, 20 hrs) [mg/mL] | Assay (concentration of dissolved compound) ([2]; NaCl (0.83%), 15 min.) [mg/mL] | Assay (concentration of dissolved compound) ([2]; NaCl (0.83%), 30 min.) [mg/mL] | Assay (concentration of dissolved compound) ([2]; NaCl (0.83%), 1 hr) [mg/mL] | Assay (concentration of dissolved compound) ([2]; NaCl (0.83%), 20 hrs) [mg/mL] | Assay (concentration of dissolved compound) ([3]; H2O, 2 hrs) [mg/mL] | Assay (concentration of dissolved compound) ([3]; H2O, 20 hrs) [mg/mL] | Assay (concentration of dissolved compound) ([3]; NaCl (0.83%), 2 hrs) [mg/mL] | Assay (concentration of dissolved compound) ([3]; NaCl (0.83%), 20 hrs) [mg/mL] | other results
1 | Nc1nc(=O)c2c([nH]1)NCC(CNc1ccc(C(=O)N[C@@H](CCC(=O)[O-])C(=O)[O-])cc1)N2C=O.[Ca+2] (mixture of isomers) [Sigma Leucovorin Calcium, racemic leucovorin calcium] | 16.7 | 22.0 | 15.8 | 3.3 | 22.6 | 22.9 | 23.2 | 7.4 | 52.9 | 53.3 | 50.1 | 9.0 | 42.1 | 41.9 | 39.6 | 14.2 |  |  |  |  | 
2 | Nc1nc(=O)c2c([nH]1)NCC(CNc1ccc(C(=O)N[C@@H](CCC(=O)[O-])C(=O)[O-])cc1)N2C=O.[Ca+2] (mixture of isomers) [USP Leucovorin Calcium, racemic leucovorin calcium] |  |  |  |  |  |  |  |  |  |  |  |  |  |  |  |  | 10.1 | 10.8 | 16.1 | 17.1 | Assay (concentration of dissolved compound) ([4]; H2O, 20 hrs): 13.4 mg/mL; Assay (concentration of dissolved compound) ([4]; NaCl (0.83%), 20 hrs): 17.4 mg/mL; Assay (concentration of dissolved compound) ([5]; H2O, 20 hrs): 4.2 mg/mL; Assay (concentration of dissolved compound) ([5]; NaCl (0.83%), 20 hrs): 7.2 mg/mL; Assay (concentration of dissolved compound) ([6]; H2O, 2 hrs): 3.6 mg/mL; Assay (concentration of dissolved compound) ([6]; H2O, 15 hrs): 3.8 mg/mL; Assay (concentration of dissolved compound) ([6]; NaCl (0.83%), 2 hrs): 8.4 mg/mL; Assay (concentration of dissolved compound) ([6]; NaCl (0.83%), 15 hrs): 8.6 mg/mL
3 | Nc1nc(=O)c2c([nH]1)NCC(CNc1ccc(C(=O)NC(CCC(=O)O)C(=O)O)cc1)N2C=O [L-Leucovorin, L-leucovorin calcium] | 7.5 | 8.4 | 8.0 | 11.9 | 9.6 | 10.0 | 13.4 | 17.4 | 14.9 | 15.1 | 16.1 | 23.6 | 20.2 | 20.4 | 21.6 | 32.4 | 40.4 | 42.3 | 49.2 | 53.1 | Assay (concentration of dissolved compound) ([4]; H2O, 2 hrs): 31.9 mg/mL; Assay (concentration of dissolved compound) ([4]; H2O, 20 hrs): 31.1 mg/mL; Assay (concentration of dissolved compound) ([4]; NaCl (0.83%), 2 hrs): 42.3 mg/mL; Assay (concentration of dissolved compound) ([4]; NaCl (0.83%), 20 hrs): 42.1 mg/mL; Assay (concentration of dissolved compound) ([5]; H2O, 2 hrs): 31.9 mg/mL; Assay (concentration of dissolved compound) ([5]; H2O, 20 hrs): 26.2 mg/mL; Assay (concentration of dissolved compound) ([5]; NaCl (0.83%), 2 hrs): 42.3 mg/mL; Assay (concentration of dissolved compound) ([5]; NaCl (0.83%), 20 hrs): 39.6 mg/mL; Assay (concentration of dissolved compound) ([6]; H2O, 2 hrs): 40.4 mg/mL; Assay (concentration of dissolved compound) ([6]; H2O, 15 hrs): 21.2 mg/mL; Assay (concentration of dissolved compound) ([6]; NaCl (0.83%), 2 hrs): 49.2 mg/mL; Assay (concentration of dissolved compound) ([6]; NaCl (0.83%), 15 hrs): 35.6 mg/mL
